Reference: PMC12478189, “Structurally diverse viral inhibitors converge on a shared mechanism to stall the antigen transporter TAP” (Proceedings of the National Academy of Sciences of the …, 2025)

Molecular target: T1, TAP/hUS6 complex (Homo sapiens, UniProt Q03518+Q03519)
T1 construct: gene TAP1; TAP1 C-terminal SpyCatcher, TAP2, hUS6 with SpyTag at its cytoplasmic terminus (covalent tether), GFP tag cleaved; HEK293S GnTI-; in GDN; hUS6 residues 102-136 resolved; with Unique short US6 glycoprotein
T1 sequence (P14334 20-183): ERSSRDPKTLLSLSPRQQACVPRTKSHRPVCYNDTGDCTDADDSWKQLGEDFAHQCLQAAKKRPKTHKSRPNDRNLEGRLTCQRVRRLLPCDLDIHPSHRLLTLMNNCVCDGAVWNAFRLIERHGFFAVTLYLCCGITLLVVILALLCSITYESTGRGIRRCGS
T1 sequence (Q03518 whole entry, the tested form may be a part): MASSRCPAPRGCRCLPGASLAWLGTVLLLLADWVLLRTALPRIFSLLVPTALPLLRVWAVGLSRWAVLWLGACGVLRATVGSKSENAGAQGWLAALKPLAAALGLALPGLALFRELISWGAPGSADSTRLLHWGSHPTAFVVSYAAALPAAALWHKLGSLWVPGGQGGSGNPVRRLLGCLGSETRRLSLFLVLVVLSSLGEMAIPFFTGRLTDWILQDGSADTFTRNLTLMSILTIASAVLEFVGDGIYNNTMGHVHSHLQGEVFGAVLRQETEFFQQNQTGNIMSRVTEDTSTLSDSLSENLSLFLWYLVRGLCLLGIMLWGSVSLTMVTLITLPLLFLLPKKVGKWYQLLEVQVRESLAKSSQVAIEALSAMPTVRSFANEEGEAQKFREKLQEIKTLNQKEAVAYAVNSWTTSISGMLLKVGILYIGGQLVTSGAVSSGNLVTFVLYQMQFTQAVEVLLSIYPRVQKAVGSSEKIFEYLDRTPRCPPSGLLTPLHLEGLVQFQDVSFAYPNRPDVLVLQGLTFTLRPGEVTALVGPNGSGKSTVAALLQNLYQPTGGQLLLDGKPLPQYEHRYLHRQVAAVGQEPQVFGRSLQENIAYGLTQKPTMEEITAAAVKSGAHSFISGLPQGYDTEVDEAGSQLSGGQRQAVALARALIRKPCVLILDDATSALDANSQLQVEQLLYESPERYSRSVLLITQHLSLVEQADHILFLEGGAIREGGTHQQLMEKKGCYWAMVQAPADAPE
T1 sequence (Q03519 whole entry, the tested form may be a part): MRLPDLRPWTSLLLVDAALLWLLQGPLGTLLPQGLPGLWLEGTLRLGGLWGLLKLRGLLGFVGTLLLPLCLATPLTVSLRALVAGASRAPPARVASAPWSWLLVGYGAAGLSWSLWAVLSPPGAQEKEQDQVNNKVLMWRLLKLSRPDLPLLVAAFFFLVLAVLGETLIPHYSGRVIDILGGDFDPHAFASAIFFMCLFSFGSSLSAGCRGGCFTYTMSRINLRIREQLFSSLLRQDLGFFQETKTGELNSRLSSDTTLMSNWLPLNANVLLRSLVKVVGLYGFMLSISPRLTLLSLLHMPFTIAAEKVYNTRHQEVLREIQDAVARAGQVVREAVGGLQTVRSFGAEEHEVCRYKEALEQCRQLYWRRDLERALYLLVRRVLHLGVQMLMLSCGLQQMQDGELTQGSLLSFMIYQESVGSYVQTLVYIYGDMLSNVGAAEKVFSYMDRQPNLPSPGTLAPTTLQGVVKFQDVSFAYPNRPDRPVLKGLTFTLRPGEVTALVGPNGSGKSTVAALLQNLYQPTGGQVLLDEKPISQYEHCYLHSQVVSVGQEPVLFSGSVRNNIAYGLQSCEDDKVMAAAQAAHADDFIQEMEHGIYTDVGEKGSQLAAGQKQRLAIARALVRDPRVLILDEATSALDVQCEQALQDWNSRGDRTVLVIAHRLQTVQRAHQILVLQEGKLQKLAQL
Assay: cryo-EM structure of the complex
Format: binding
Settings: pH 6.5

SMILES	cryo-EM structure of the complex (10 mM ATP added, ADP at the consensus NBD site, posthydrolytic state)	cryo-EM structure of the complex (10 mM ATP, ATP at the degenerate NBD site, outward-facing, NBD-dimerized)
Nc1ncnc2c1ncn2[C@@H]1O[C@H](COP(=O)(O)OP(=O)(O)O)[C@@H](O)[C@H]1O [ADP]	densities corresponding to ATP bound at the degenerate site and ADP at the consensus site	–
Nc1ncnc2c1ncn2[C@@H]1O[C@H](COP(=O)(O)OP(=O)(O)OP(=O)(O)O)[C@@H](O)[C@H]1O [ATP]	–	densities corresponding to ATP bound at the degenerate site and ADP at the consensus site
